pIC50: −log10 of the molar value.
What was measured:
Solubility Protocol = format: physicochemical; details: aqueous buffer, thermodynamic from solid; pH 7.4, 0.1 M sodium phosphate buffer
Method: About 5 mg of a compound was mixed with 500 μL of pH 7.4, 0.1 M sodium phosphate buffer. The mixture was adjusted to the original pH of 7.4 and then mixed overnight or longer via rotary mixing. The sample was checked for pH and then filtered through a 0.45 μm filter. If the pH drifted away, the sample was adjusted to its original pH and mixed for at least 15 minutes before filtration. The filtrate was analyzed using HPLC.

PDE4B = molecular target: T1, PDE4B (Homo sapiens, UniProt Q07343); assay: PDE/AK Biological Activity Assay (coupled PDE/adenylate kinase bioluminescent assay); format: biochemical; details: catalytic domain of PDE4B, read-out: PDE4 Enzyme IC50
T1 construct: hex-histidine (His6) (N); made in house
T1 sequence (Q07343 330-659 limits assumed, species assumed): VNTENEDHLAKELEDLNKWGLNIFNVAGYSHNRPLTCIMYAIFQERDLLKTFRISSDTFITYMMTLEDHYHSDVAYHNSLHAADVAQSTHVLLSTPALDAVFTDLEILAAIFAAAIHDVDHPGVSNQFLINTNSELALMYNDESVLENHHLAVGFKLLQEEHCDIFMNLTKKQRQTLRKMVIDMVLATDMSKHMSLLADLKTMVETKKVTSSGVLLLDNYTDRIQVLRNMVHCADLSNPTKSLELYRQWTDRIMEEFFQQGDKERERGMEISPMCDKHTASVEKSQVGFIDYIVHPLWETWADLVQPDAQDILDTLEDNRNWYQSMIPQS
Excerpt: Phosphodiesterases regulate the activity of the second messenger cyclic adenosine monophosphate (cAMP) by hydrolyzing cAMP to adenosine monophosphate (AMP). We developed a coupled PDE/AK bioluminescent high-throughput assay to measure the activity of phosphodiesterases. In the PDE/AK assay, the AMP produced from the hydrolysis of cAMP by phosphodiesterase is converted to adenosine diphosphate (ADP) by the phosphotransferase activity of adenylate kinase (also known as ADK or myokinase). Adenylate kinase will catalyze the conversion of 1 mole of AMP and 1 mole of ATP into 2 moles of ADP. Thus the conversion of AMP to ADP will result in the subsequent loss of ATP. The decrease in ATP concentration can be monitored as light output using luciferase in a reaction that requires ATP to produce light. The PDE/AK assay uses luciferase, which catalyzes the production of light from ATP present in the reaction mix. The amount of emitted light is inversely proportional to the level of AMP present in the reaction. Test compounds are incubated with the phosphodiesterases and phosphodiesterase inhibitors will decrease the rate of cAMP hydrolysis and decrease the subsequent production of AMP. Thus phosphodiesterase inhibitors will decrease the conversion of ATP to ADP and result in the greatest emission of light.
Compounds may be screened for functional potency in in vitro biochemical assays for their ability to inhibit the activity of phosphodiesterase (PDE) enzymes. A coupled PDE/AK assay was utilized to measure the inhibitory activity of compounds on PDE isoforms. The catalytic domain of PDE4B was fused to an amino-terminus hex-histidine affinity tag and purified. PDE4B enzyme was incubated with compounds for 10 minutes. Cyclic AMP substrate, ATP and adenylate kinase were then added to the PDE enzyme mix and incubated for 45 minutes at room temperature. A commercial ATP detection assay, Perkin Elmer's easyLite ATP detection reagent, was then added to measure the relative amount of ATP present in the reaction. After 10 minute incubation, the luminescent signal was quantitated with either the Perkin Elmer Viewlux or Molecular Devices Acquest or Analyst. Roflumilast and Rolipram are the positive controls used in the assay.

Stability Protocol = format: physicochemical; details: pH 7.4 sodium phosphate buffer, preliminary shelf life (T90) estimated from stressed samples
Method: About 3 mg of a compound was dissolved in 3 mL of acetonitrile/water mixture (50/50). 100 μL of the stock solution was added to 20 mL each of 0.025 M pH 5.0 sodium acetate buffer (A5.0), 0.025 M pH 5.0 citrate buffer (C5.0) and 0.025 M pH 7.4 sodium phosphate buffer (P7.4). A two mL aliquot of each solution was kept in a glass vial equipped a cap lined with Teflon. Two vials containing the solution were stored at 4° C. or −20° C. as control. Other aliquots were stressed at RT, 45° C. or 75° C. for specified time check points, e.g. 1 day, 1 w, 2 w, 4 w, 8 w,12 w. The stressed samples in duplicate were assayed against the control using HPLC. The results were reported in % degradation. Preliminary shelf life (T90) was estimated assuming the rate of chemical degradation is double when the temperature is up 10° C.

For `COc1ccc2c(Nc3c(Cl)cncc3Cl)cc(=O)[nH]c2c1OCCCCO` [Example 41, 4-(3,5-dichloropyridin-4-ylamino)-8-(4-hydroxybutoxy)-7-methoxyquinolin-2(1H)-one], the solubility (Solubility Protocol) was ≥ 1000 µg/mL and the pIC50 (PDE4B) was > 6.00.
In the case of `COc1ccc2c(Nc3c(Cl)cncc3Cl)cc(=O)[nH]c2c1OCCCCCO` [Example 42, 4-(3,5-dichloropyridin-4-ylamino)-8-(5-hydroxypentyloxy)-7-methoxyquinolin-2(1H)-one], the solubility (Solubility Protocol) was ≥ 1000 µg/mL and the pIC50 (PDE4B) was > 6.00.
For `COc1ccc2c(Nc3c(C)cncc3C)cc(=O)[nH]c2c1OCCCCCN(C)C` [Example 45, 8-(5-(dimethylamino)pentyloxy)-4-(3,5-dimethylpyridin-4-ylamino)-7-methoxyquinolin-2(1H)-one], the solubility (Solubility Protocol) was ≥ 1000 µg/mL and the pIC50 (PDE4B) was > 6.00.
In the case of `COc1ccc2c(Nc3c(Cl)cncc3Cl)cc(=O)[nH]c2c1OCCCCCN1CCN(C)CC1` [Example 47, 4-(3,5-dichloropyridin-4-ylamino)-7-methoxy-8-(5-(4-methylpiperazin-1-yl)pentyloxy)quinolin-2(1H)-one], the solubility (Solubility Protocol) was ≥ 1000 µg/mL and the pIC50 (PDE4B) was > 6.00.
In the case of `COc1ccc2c(Nc3c(Cl)cncc3Cl)cc(=O)[nH]c2c1OCCCCCN1CCOCC1` [Example 49, 4-(3,5-dichloropyridin-4-ylamino)-7-methoxy-8-(5-morpholinopentyloxy)quinolin-2(1H)-one], the solubility (Solubility Protocol) was ≥ 1000 µg/mL and the pIC50 (PDE4B) was > 6.00.
For `COc1ccc2c(Nc3c(Cl)cncc3Cl)cc(=O)[nH]c2c1OCC(N)=O` [Example 50, 2-(4-(3,5-dichloropyridin-4-ylamino)-7-methoxy-2-oxo-1,2-dihydroquinolin-8-yloxy)acetamide], the solubility (Solubility Protocol) was ≥ 1000 µg/mL and the pIC50 (PDE4B) was > 6.00.
With `COc1ccc2c(Nc3c(Cl)cncc3Cl)cc(=O)[nH]c2c1OCCCC(=O)O` [Example 51, 4-(4-(3,5-dichloropyridin-4-ylamino)-7-methoxy-2-oxo-1,2-dihydroquinolin-8-yloxy)butanoic acid] the solubility (Solubility Protocol) was ≥ 1000 µg/mL and the pIC50 (PDE4B) was > 6.00.
In the case of `COc1ccc2c(Nc3c(Cl)cncc3Cl)cc(=O)[nH]c2c1OCCCCCCCCC(=O)O` [Example 55, 9-(4-(3,5-dichloropyridin-4-ylamino)-7-methoxy-2-oxo-1,2-dihydroquinolin-8-yloxy)nonanoic acid], the solubility (Solubility Protocol) was ≥ 1000 µg/mL and the pIC50 (PDE4B) was > 6.00.
For `COc1ccc2c(Nc3c(Cl)cncc3Cl)cc(=O)[nH]c2c1OCC(C)C` [Example 61, 4-(3,5-dichloropyridin-4-ylamino)-8-isobutoxy-7-methoxyquinolin-2(1H)-one], the pIC50 (PDE4B) was > 6.00 and the “Stability, pH 7.4” value (Stability Protocol) was “+ (+ indicates ≧1 Year)”.
For `COc1ccc2c(Nc3c(Cl)cncc3Cl)cc(=O)[nH]c2c1OCCCn1ccnc1` [Example 62, 8-(3-(1H-imidazol-1-yl)propoxy)-4-(3,5-dichloropyridin-4-ylamino)-7-methoxyquinolin-2(1H)-one], the solubility (Solubility Protocol) was ≥ 1000 µg/mL and the pIC50 (PDE4B) was > 6.00.
With `COc1ccc2c(Nc3c(Cl)cncc3Cl)cc(=O)[nH]c2c1OCCCCC(=O)N[C@@H](CO)C(=O)O` [Example 64, (S)-2-(5-(4-(3,5-dichloropyridin-4-ylamino)-7-methoxy-2-oxo-1,2-dihydroquinolin-8-yloxy)pentanamido)-3-hydroxypropanoic acid] the solubility (Solubility Protocol) was ≥ 1000 µg/mL and the pIC50 (PDE4B) was > 6.00.
For `COc1ccc2c(Nc3c(Cl)cncc3Cl)cc(=O)[nH]c2c1OCCCCC(=O)N[C@@H](CC(=O)O)C(=O)O` [Example 66, (S)-2-(5-(4-(3,5-dichloropyridin-4-ylamino)-7-methoxy-2-oxo-1,2-dihydroquinolin-8-yloxy)pentanamido)succinic acid], the solubility (Solubility Protocol) was ≥ 1000 µg/mL and the pIC50 (PDE4B) was > 6.00.
With `COc1ccc2c(Nc3c(Cl)cncc3Cl)cc(=O)[nH]c2c1OCCCc1nn[nH]n1` [Example 67, 8-(3-(2H-tetrazol-5-yl)propoxy)-4-(3,5-dichloropyridin-4-ylamino)-7-methoxyquinolin-2(1H)-one] the solubility (Solubility Protocol) was ≥ 1000 µg/mL and the pIC50 (PDE4B) was > 6.00.
With `COc1ccc2c(Nc3c(Cl)cncc3Cl)cc(=O)[nH]c2c1OCCCCc1nn[nH]n1` [Example 68, 8-(4-(2H-tetrazol-5-yl)butoxy)-4-(3,5-dichloropyridin-4-ylamino)-7-methoxyquinolin-2(1H)-one] the solubility (Solubility Protocol) was ≥ 1000 µg/mL and the pIC50 (PDE4B) was > 6.00.
With `COc1ccc2c(Nc3c(Cl)cncc3Cl)cc(=O)[nH]c2c1OCCCCCc1nn[nH]n1` [Example 69, 8-(5-(2H-tetrazol-5-yl)pentyloxy)-4-(3,5-dichloropyridin-4-ylamino)-7-methoxyquinolin-2(1H)-one] the pIC50 (PDE4B) was > 6.00 and the “Stability, pH 7.4” value (Stability Protocol) was “+ (+ indicates ≧1 Year)”.
In the case of `COCCOCCOCCCOc1c(OC)ccc2c(Nc3c(Cl)cncc3Cl)cc(=O)[nH]c12` [Example 70, 4-(3,5-dichloropyridin-4-ylamino)-7-methoxy-8-(3-(2-(2-methoxyethoxy)ethoxy)propoxy)quinolin-2(1H)-one], the solubility (Solubility Protocol) was ≥ 1000 µg/mL and the pIC50 (PDE4B) was > 6.00.
In the case of `COc1ccc2c(Nc3c(Cl)cncc3Cl)cc(=O)[nH]c2c1OCCCCCCc1nn[nH]n1` [Example 71, 8-(6-(2H-tetrazol-5-yl)hexyloxy)-4-(3,5-dichloropyridin-4-ylamino)-7-methoxyquinolin-2(1H)-one], the solubility (Solubility Protocol) was ≥ 1000 µg/mL and the pIC50 (PDE4B) was > 6.00.
In the case of `COc1ccc2c(Nc3c(C)cncc3C)cc(=O)[nH]c2c1OCCCCC(=O)O` [Example 72, 5-(4-(3,5-dimethylpyridin-4-ylamino)-7-methoxy-2-oxo-1,2-dihydroquinolin-8-yloxy)pentanoic acid], the solubility (Solubility Protocol) was ≥ 1000 µg/mL and the pIC50 (PDE4B) was > 6.00.
For `COc1ccc2c(Nc3c(C)cncc3C)cc(=O)[nH]c2c1OCCCCCC(=O)O` [Example 73, 6-(4-(3,5-dimethylpyridin-4-ylamino)-7-methoxy-2-oxo-1,2-dihydroquinolin-8-yloxy)hexanoic acid], the solubility (Solubility Protocol) was ≥ 1000 µg/mL and the pIC50 (PDE4B) was > 6.00.
With `COc1ccc2c(Nc3c(C)cncc3C)cc(=O)[nH]c2c1OCCCCCCC(=O)O` [Example 74, 7-(4-(3,5-dimethylpyridin-4-ylamino)-7-methoxy-2-oxo-1,2-dihydroquinolin-8-yloxy)heptanoic acid] the solubility (Solubility Protocol) was ≥ 1000 µg/mL and the pIC50 (PDE4B) was > 6.00.
With `COc1ccc2c(Nc3c(C)cncc3C)cc(=O)[nH]c2c1OCCCCCCCC(=O)O` [Example 75, 8-(4-(3,5-dimethylpyridin-4-ylamino)-7-methoxy-2-oxo-1,2-dihydroquinolin-8-yloxy)octanoic acid] the solubility (Solubility Protocol) was ≥ 1000 µg/mL and the pIC50 (PDE4B) was > 6.00.
In the case of `COc1ccc2c(Nc3c(C)cncc3C)cc(=O)[nH]c2c1OCCCCCCCCC(=O)O` [Example 76, 9-(4-(3,5-dimethylpyridin-4-ylamino)-7-methoxy-2-oxo-1,2-dihydroquinolin-8-yloxy)nonanoic acid], the solubility (Solubility Protocol) was < 1000 µg/mL and the pIC50 (PDE4B) was > 6.00.
In the case of `COc1ccc2c(Nc3c(C)cncc3C)cc(=O)[nH]c2c1OCCCn1ccnc1` [Example 77, 8-(3-(1H-imidazol-1-yl)propoxy)-4-(3,5-dimethylpyridin-4-ylamino)-7-methoxyquinolin-2(1H)-one], the solubility (Solubility Protocol) was < 1000 µg/mL and the pIC50 (PDE4B) was > 6.00.
With `COc1ccc2c(Nc3c(C)cncc3C)cc(=O)[nH]c2c1OCCCCn1ccnc1` [Example 78, 8-(4-(1H-imidazol-1-yl)butoxy)-4-(3,5-dimethylpyridin-4-ylamino)-7-methoxyquinolin-2(1H)-one] the pIC50 (PDE4B) was > 6.00 and the “Stability, pH 7.4” value (Stability Protocol) was “+ (+ indicates ≧1 Year)”.
For `COc1ccc2c(Nc3c(C)cncc3C)cc(=O)[nH]c2c1OCCCCCn1ccnc1` [Example 79, 8-(5-(1H-imidazol-1-yl)pentyloxy)-4-(3,5-dimethylpyridin-4-ylamino)-7-methoxyquinolin-2(1H)-one], the pIC50 (PDE4B) was > 6.00 and the “Stability, pH 7.4” value (Stability Protocol) was “+ (+ indicates ≧1 Year)”.
In the case of `COc1ccc2c(Nc3c(C)cncc3C)cc(=O)[nH]c2c1OCCCCCCn1ccnc1` [Example 80, 8-(6-(1H-imidazol-1-yl)hexyloxy)-4-(3,5-dimethylpyridin-4-ylamino)-7-methoxyquinolin-2(1H)-one], the solubility (Solubility Protocol) was ≥ 1000 µg/mL and the pIC50 (PDE4B) was > 6.00.
